In ChEMBL document CHEMBL1201862, “PubChem BioAssay data set” (2004):
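Protocol summary: plate cells (96-well), add compound at 5 concentrations, incubate 48 h, interpolate endpoints linearly. Here, GI50 denotes the concentration required for 50% inhibition of growth.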 Calls of active or inactive are those of the source. Cut-off read from the data, not from the text of the source: active = GI50 up to about 1.1 µM and inactive = higher. Numbered stars: 1 amine (or outer) side, 2 acyl side, 3 side chain; on linkers, the order of the positions; unused ones are H or OH. Bridge positions count the residues as written; N and C are the ends. Square brackets hold non-standard residues; d marks the D form. Peptide text beside a SMILES is read from it. I, II: the chains in the order shown. Actinocin(9to1) = Cc1c2oc3c(C)ccc(C(=O)[*:1])c3nc-2c(C(=O)[*:2])c(N)c1=O; X48 = O=C1CC(C(=O)[*:2])N([*:1])C1; NMeV = CN[CH](C(=O)O)C(C)C; Sar = CNCC(=O)O

Legend:
Assay in all cases: DTP human tumour cell line panel, 48 h
A498 = system: A498
DU-145 = system: DU-145
HOP-92 = system: HOP-92
IGROV-1 = system: IGROV-1
K562 = system: K562
LOX IMVI = system: LOX IMVI
Malme-3M = system: Malme-3M
NCI-H460 = system: NCI-H460
OVCAR-4 = system: OVCAR-4
OVCAR-5 = system: OVCAR-5
PC-3 = system: PC-3
SF-295 = system: SF-295
SF-539 = system: SF-539
SK-MEL-2 = system: SK-MEL-2
SK-MEL-5 = system: SK-MEL-5
SR = system: SR
U-251 = system: U-251
UACC-62 = system: UACC-62
UO-31 = system: UO-31
HCC 2998 = system: HCC 2998

Measured: GI50

C[N+](CCCl)(CCCl)Cc1cccc2cccc([N+](=O)[O-])c12
inactive: A498 > 100 µM | DU-145 > 100 µM | HOP-92 > 100 µM | IGROV-1 56.4 µM | K562 > 100 µM | LOX IMVI 48.1 µM | Malme-3M 81.1 µM | NCI-H460 53.8 µM | OVCAR-4 57.7 µM | OVCAR-5 > 100 µM | PC-3 85.3 µM | SF-295 > 100 µM | SF-539 94.8 µM | SK-MEL-2 > 100 µM | SK-MEL-5 53.3 µM | SR 5.83 µM | U-251 > 100 µM | UACC-62 > 100 µM | UO-31 > 100 µM

COc1ccc(OC)c([N+](=O)[O-])c1-c1nc2sccn2c1/C=N/N=C(N)N
inactive: A498 > 100 µM | DU-145 > 100 µM | HCC 2998 30.4 µM | HOP-92 23 µM | IGROV-1 91.6 µM | K562 43.6 µM | LOX IMVI 36.9 µM | Malme-3M 35.2 µM | NCI-H460 76.6 µM | OVCAR-5 > 100 µM | PC-3 53 µM | SF-295 > 100 µM | SF-539 > 100 µM | SK-MEL-2 33.3 µM | SK-MEL-5 28.8 µM | SR 30.6 µM | U-251 41.1 µM | UACC-62 91.8 µM | UO-31 > 100 µM

Cc1nc2c(O)cc3c4c([nH]c3c2nc1C)C(=O)CCC4
inactive: A498 19.5 µM | DU-145 1.99 µM | HCC 2998 1.71 µM | HOP-92 11.2 µM | K562 5.06 µM | LOX IMVI 2.29 µM | Malme-3M 8.93 µM | NCI-H460 3.51 µM | OVCAR-4 2.87 µM | OVCAR-5 4.24 µM | PC-3 3.61 µM | SF-295 5.08 µM | SF-539 2.85 µM | SK-MEL-2 2.59 µM | SK-MEL-5 4.76 µM | SR 2.36 µM | U-251 2.16 µM | UACC-62 3.66 µM | UO-31 14.3 µM

COc1ccc(/N=N/c2ccc3oc(=O)c(C(=O)Nc4ccc(Cl)cc4)cc3c2)cc1
inactive: A498 > 10 µM | DU-145 > 10 µM | HCC 2998 > 10 µM | HOP-92 7.83 µM | IGROV-1 3.52 µM | LOX IMVI 9.95 µM | Malme-3M > 10 µM | NCI-H460 > 10 µM | OVCAR-4 > 10 µM | OVCAR-5 > 10 µM | PC-3 2.56 µM | SF-295 > 10 µM | SF-539 5.18 µM | SK-MEL-2 > 10 µM | SK-MEL-5 > 10 µM | SR 2.38 µM | U-251 5.4 µM | UO-31 2.24 µM

O=C(c1cc(Cl)ccc1Cl)N1CCN(C(=O)c2cc(Cl)ccc2Cl)CC1
inactive: A498 27 µM | DU-145 > 100 µM | HCC 2998 > 100 µM | HOP-92 67.1 µM | IGROV-1 > 100 µM | K562 > 100 µM | LOX IMVI > 100 µM | Malme-3M > 100 µM | NCI-H460 > 100 µM | OVCAR-4 > 100 µM | OVCAR-5 > 100 µM | PC-3 > 100 µM | SF-295 91 µM | SF-539 > 100 µM | SK-MEL-5 55.6 µM | SR > 100 µM | U-251 > 100 µM | UO-31 > 100 µM

OCCc1ccsc1-c1sc(-c2cc(CCO)c(-c3sccc3CCO)s2)cc1CCO
inactive: A498 22.5 µM | DU-145 15.5 µM | HCC 2998 12.5 µM | HOP-92 11.6 µM | IGROV-1 15.7 µM | K562 7.94 µM | LOX IMVI 5.45 µM | Malme-3M 11.1 µM | NCI-H460 6.12 µM | OVCAR-4 15.6 µM | OVCAR-5 17.1 µM | PC-3 11.8 µM | SF-295 15.1 µM | SK-MEL-2 14.7 µM | SK-MEL-5 15.6 µM | SR 20.7 µM | U-251 12.7 µM | UACC-62 11.6 µM | UO-31 12.4 µM

COc1cc(Cc2cnc(N)nc2N)cc(OC)c1OCCCNc1ccc([N+](=O)[O-])cc1
inactive: A498 14.9 µM | DU-145 15.8 µM | HCC 2998 14.5 µM | HOP-92 14.3 µM | IGROV-1 12.5 µM | K562 8.69 µM | Malme-3M 12.7 µM | NCI-H460 7.48 µM | OVCAR-4 15.8 µM | OVCAR-5 19 µM | PC-3 10.1 µM | SF-539 12.7 µM | SK-MEL-2 15.5 µM | SK-MEL-5 5.79 µM | SR 4.68 µM | U-251 13.7 µM | UACC-62 12.9 µM | UO-31 12.4 µM

COC(=O)c1cc(C#N)[nH]c1-c1ccsc1
inactive: A498 95.5 µM | DU-145 > 100 µM | HCC 2998 > 100 µM | HOP-92 > 100 µM | IGROV-1 > 100 µM | K562 53.1 µM | LOX IMVI > 100 µM | Malme-3M > 100 µM | OVCAR-4 > 100 µM | OVCAR-5 > 100 µM | PC-3 > 100 µM | SF-295 > 100 µM | SK-MEL-2 > 100 µM | SK-MEL-5 > 100 µM | SR 29.9 µM | U-251 > 100 µM | UACC-62 > 100 µM | UO-31 46.3 µM

CC(=O)C1=CN=C2C(=O)N(c3ccccc3)N(C)C12C (stereo unspecified)
inactive: A498 > 100 µM | DU-145 > 100 µM | HCC 2998 16.9 µM | HOP-92 > 100 µM | IGROV-1 > 100 µM | K562 > 100 µM | LOX IMVI > 100 µM | Malme-3M > 100 µM | OVCAR-4 > 100 µM | OVCAR-5 > 100 µM | PC-3 > 100 µM | SF-295 > 100 µM | SF-539 > 100 µM | SK-MEL-2 > 100 µM | SK-MEL-5 > 100 µM | SR > 100 µM | U-251 > 100 µM | UACC-62 > 100 µM | UO-31 > 100 µM

Cc1c2oc3c(C)ccc(C(=O)NC4C(=O)NC(C(C)C)C(=O)N5CC(=O)CC5C(=O)N(C)CC(=O)N(C)C(C(C)C)C(=O)OC4C)c3nc-2c(C(=O)NC2C(=O)NC(C(C)C)C(=O)N3CC(=O)CC3C(=O)N(C)CC(=O)N(C)C(C(C)C)C(=O)OC2C)c(N)c1=O (stereo unspecified) (I: TV[X48][Sar][NMeV] / II: TV[X48][Sar][NMeV]; ester I:1-I:C, II:1-II:C; linker I:N-II:N via Actinocin(9to1); configuration not given here)
active: A498 > 1 µM | DU-145 > 1 µM | HCC 2998 > 1 µM | HOP-92 > 1 µM | IGROV-1 > 1 µM | K562 > 1 µM | LOX IMVI > 1 µM | Malme-3M > 1 µM | NCI-H460 > 1 µM | OVCAR-4 > 1 µM | OVCAR-5 > 1 µM | PC-3 > 1 µM | SF-295 > 1 µM | SF-539 > 1 µM | SK-MEL-2 > 1 µM | SK-MEL-5 > 1 µM | SR 0.948 µM | U-251 > 1 µM | UO-31 > 1 µM
